Results reported in ChEMBL document CHEMBL1146198, “In vitro studies with DQ-113 and comparison fluoroquinolones to determine propensities to select resistance in gram-positive cocci” (2007).

The compounds below were run on Staphylococcus aureus (assay: Susceptibility of methicillin-sensitive/resistant Staphylococcus aureus single-step mutant by agar dilution method). Details: not given.
Format: functional

Row | Compound | MIC [µg/mL]
1 | C[C@H]1COc2c(N3CCN(C)CC3)c(F)cc3c(=O)c(C(=O)O)cn1c23.C[C@H]1COc2c(N3CCN(C)CC3)c(F)cc3c(=O)c(C(=O)O)cn1c23.O [LEVOFLOXACIN] | 2

These compounds were tested on Enterococcus (assay: Susceptibility of vancomycin-resistant Enterococcus species single-step mutant by agar dilution method). Details: not given.
Format: functional

Row | Compound | MIC [µg/mL]
2 | C[C@H]1COc2c(N3CCN(C)CC3)c(F)cc3c(=O)c(C(=O)O)cn1c23.C[C@H]1COc2c(N3CCN(C)CC3)c(F)cc3c(=O)c(C(=O)O)cn1c23.O [LEVOFLOXACIN] | 16

Each compound was assayed on Enterococcus (assay: Susceptibility of drug-selected vancomycin-resistant Enterococcus species mutant by agar dilution method). Details: read-out: MIC.
Format: functional

Row | Compound | MIC [µg/mL]
3 | C[C@H]1COc2c(N3CCN(C)CC3)c(F)cc3c(=O)c(C(=O)O)cn1c23.C[C@H]1COc2c(N3CCN(C)CC3)c(F)cc3c(=O)c(C(=O)O)cn1c23.O [LEVOFLOXACIN] | 256

What follows are compounds tested on Streptococcus pneumoniae (assay: Effect on 16 ug/ml levofloxacin-selected penicillin-resistant Streptococcus pneumoniae 335 mutant after five passages assessed as susceptibility by agar dilution method). Details: not given.
Format: functional

Row | Compound | MIC [µg/mL]
4 | C[C@H]1COc2c(N3CCN(C)CC3)c(F)cc3c(=O)c(C(=O)O)cn1c23.C[C@H]1COc2c(N3CCN(C)CC3)c(F)cc3c(=O)c(C(=O)O)cn1c23.O [LEVOFLOXACIN] | 64

Each compound was assayed on Streptococcus pneumoniae (assay: Effect on 2 ug/ml moxifloxacin-selected penicillin-resistant Streptococcus pneumoniae 216 mutant after five passages assessed as susceptibility by agar dilution method). Details: not given.
Format: functional

Row | Compound | MIC [µg/mL]
5 | C[C@H]1COc2c(N3CCN(C)CC3)c(F)cc3c(=O)c(C(=O)O)cn1c23.C[C@H]1COc2c(N3CCN(C)CC3)c(F)cc3c(=O)c(C(=O)O)cn1c23.O [LEVOFLOXACIN] | 64
